Molecular target: Serine/threonine-protein kinase mTOR (Homo sapiens, UniProt P42345)
Assay: mTOR Kinase Assay
Conditions: 25 °C

SMILES: Oc1cccc(-c2nc(N3CCOCC3)c3cnn(C4CCN(Cc5cccnc5)CC4)c3n2)c1 [JMC527081 Compound 5f]
- IC50: 47 nM
